Key:
[1] = clinical trial, Zapolska-Downar et al. 2000; cited from earlier work
PPAR = assay: Effect of propionic acid on PPAR gene expression in vitro (semiquantitative RT-PCR in HUVEC); format: cell-based; settings: PPAR mRNA in human endothelial cells, percent in relation to GAPDH mRNA (100%)
Procedure: Human umbilical vein endothelial cells, HUVEC, were obtained from umbilical cords by collagenase digestion as described by Jaffe et al. (Biology of Endothelial Cells, Boston, Martinus Nijhoff Publishers, 1984, p. 1-13). In brief, veins of umbilical cords were perfused with PBS to remove blood cells, filled with 0.1% collagenase (type Ia) and left for 10 minutes at 37° C. Suspended HUvEC were supplemented with PBS, centrifuged and cultured at 37° C. in gelatine-coated 25 ml flasks and 6-well tissue culture plates filled with medium 199, under humidified 5% CO2 in room air. Propionic acid was added to the culture medium in the amounts of 0.1, 1.0, and 10.0 mmol/l, and the effect of the acid on the expression of PPAR was determined. Total RNA was extracted from the cells by the method of Chomczynski using TRIZOL (Gibco BRL). After isolation the integrity of the RNA samples was checked by gel electrophoresis in 1% agarose gel stained with ethidium bromide. The concentration of total RNA was calculated after spectrophotometric measurements at 260 nm wavelength. Each RNA sample (500 ng) was incubated with 1 U of DNAse I (Boehringer Mannheim, Germany) for 15 minutes at 37° C., and subsequently DNAse I was inactivated by heating at 75° C. for 3 minutes. Such DNAse-treated RNA (500 ng) was dissolved in 20 μl of a reaction mixture containing 2.5 mM of dATP, dTTP, dCTP, and dGTP (Progmega, USA), 20 U of RNAsin (Promega, USA), 100 pM of random hexamers (Boehringer Mannheim, Germany) and 20 U of MMLV Reverse Transcriptase (Boehringer Mannheim). Incubation was carried out at 37° C. for 60 minutes; the temperature of the reaction was then raised to 94° C. for 5 minutes to inactivate the enzyme and finally dropped to 4° C. […] The intensity of the bands was densitometrically measured with the gel analysis macro supplied with NIH Image. All PPAR signals were normalised to mRNA levels of the housekeeping gene GAPDH and expressed as a ratio. Data are expressed as percent in relation to GAPDH mRNA (100%).

Compound	HDL cholesterol levels [1]	Increase of mRNA, % (PPAR; propionic acid 0.1 mmol/l) [%]	Increase of mRNA, % (PPAR; propionic acid 1.0 mmol/l) [%]	Increase of mRNA, % (PPAR; propionic acid 10.0 mmol/l) [%]
CC(C)Cc1ccc(C(C)C(=O)O)cc1 (stereo not shown) [ibuprofen]	increased			
CCC(=O)O [propionic acid]		29.3	47.2	89.7
